Source: patent publication US20230250096A1, “SUBSTITUTED PHENYL-1H-PYRROLO[2,3-c] PYRIDINE DERIVATIVES” (Janssen Pharmaceutica NV, priority 2021, published 2023)

Key:
[1] = target: T1, menin/MLL (terbium chelate-labeled menin, FITC-MBM1 peptide) (Homo sapiens, UniProt O00255, T541A); assay: Menin/MLL homogenous time-resolved fluorescence (HTRF) assay; type: binding; conditions: 30 min incubation
T1 construct: Menin (a.a 1-610-6xhis tag, 2.3 mg/mL in 20 mM Hepes)
T1 sequence (O00255 with tags, fused parts or gaps T541A): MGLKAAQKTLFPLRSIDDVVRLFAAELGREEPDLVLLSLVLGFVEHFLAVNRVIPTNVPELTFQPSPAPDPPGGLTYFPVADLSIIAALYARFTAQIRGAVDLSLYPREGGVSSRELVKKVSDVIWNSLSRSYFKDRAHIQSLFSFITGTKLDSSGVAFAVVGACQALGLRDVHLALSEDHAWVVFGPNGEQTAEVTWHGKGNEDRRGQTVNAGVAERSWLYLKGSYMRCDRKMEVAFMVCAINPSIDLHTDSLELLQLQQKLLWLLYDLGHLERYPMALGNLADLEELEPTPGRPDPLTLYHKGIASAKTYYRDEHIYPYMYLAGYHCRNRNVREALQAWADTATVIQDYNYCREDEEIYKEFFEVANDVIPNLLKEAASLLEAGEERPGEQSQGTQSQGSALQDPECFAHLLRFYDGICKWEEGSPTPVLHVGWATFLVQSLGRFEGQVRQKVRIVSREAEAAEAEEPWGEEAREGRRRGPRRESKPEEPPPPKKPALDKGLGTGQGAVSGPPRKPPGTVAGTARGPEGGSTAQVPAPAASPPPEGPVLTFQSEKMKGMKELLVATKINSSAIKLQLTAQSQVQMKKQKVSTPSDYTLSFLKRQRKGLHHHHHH
In short: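 Competition binding read by time-resolved FRET (FITC 520 nm over terbium 490 nm) after compound meets labeled menin 1-610-His […] for 30 min, then FITC-MBM1 (75 nM) for 15 min, ambient temperature, 0.5% DMSO. Eleven-point four-fold dilutions, usually starting at 10 μM, fitted to four-parameter curves for IC50.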

[2] = system: MEIS1 mRNA expression; assay: MEIS1 mRNA expression assay (Quantigene Singleplex) in MOLM14 cells; type: cell-based, human; conditions: 48 hours incubation
In short: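 Read-out: MEIS1 transcript counts, background-subtracted and divided by RPL28, expressed as fold change over DMSO-treated cells, then dose-response modelled for IC50. MOLM14 cells (3,750/well) received graded compound for 48 h before lysis and QuantiGene hybridization at 55 °C.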

| Structure (SMILES) | IC50 [1] [nM] | IC50 ([2]; Homo sapiens, MOLM-14, 48 h) [nM] | IC50 [2] [nM] |
| --- | --- | --- | --- |
| CC(=O)N[C@@H](C)CN1CC[C@H](Cc2cn(-c3ccc(F)cc3C(=O)N(C)C(C)C)c3cncc(C)c23)C1 (single isomer, unassigned) [Compound 119b] | 0.569 | > 1000 |  |
| Cc1cncc2c1c(C[C@H]1CCN(CC3CCN(C(=O)C(C)C)CC3)C1)cn2-c1ccc(F)cc1C(=O)N(C)C(C)C (single isomer, unassigned) [Compound 121] | 0.049 | 13 |  |
| Cc1cncc2c1c(C[C@H]1CCN(CC3CCS(=O)(=O)CC3)C1)cn2-c1ccc(F)cc1C(=O)N(C)C(C)C (single isomer, unassigned) [Compound 124] | 0.156 | 114 |  |
| CN=[S@@](=O)(c1cc(F)ccc1-n1cc(C[C@@H]2CCN(CC3CCN(C(C)=O)CC3)C2)c2c(C)cncc21)C(C)C (single isomer, unassigned) [Compound 128c] | 1.01 | ~487 |  |
| Cc1cncc2c1c(CC1CNC(CC3CCOCC3)C1)cn2-c1ccc(F)cc1C(=O)N(C)C(C)C (single isomer, unassigned) [Compound 134a] | 0.032 |  | 86 |
| Cc1cncc2c1c(CC1CNC(CC3CCOCC3)C1)cn2-c1ccc(F)cc1C(=O)N(C)C(C)C (single isomer, unassigned) [Compound 134b] | 0.988 |  | > 1000 |
| Cc1cncc2c1c(CC1CNC(CC3CCOCC3)C1)cn2-c1ccc(F)cc1C(=O)N(C)C(C)C (single isomer, unassigned) [Compound 134c] | 0.073 |  | 119 |
| Cc1cncc2c1c(CC1CNC(CC3CCOCC3)C1)cn2-c1ccc(F)cc1C(=O)N(C)C(C)C (single isomer, unassigned) [Compound 134d] | 0.425 |  | > 1000 |
| Cc1cncc2c1c(C[C@H]1CCN(CC3CCN(C(=O)C4CC4)CC3)C1)cn2-c1ccc(F)cc1C(=O)N(C)C(C)C (single isomer, unassigned) [Compound 135] | ~0.056 | 7 |  |
| CC(=O)N1CCC(N2CC[C@H](Cc3cn(-c4ccc(F)cc4C(=O)N(C)C(C)C)c4cncc(C)c34)C2)C(C)C1 (single isomer, unassigned) [Compound 137b] | ~0.34 |  | 43 |
| Cc1cncc2c1c(C[C@@H]1CCN([C@H]3CCNC(=O)CC3)C1)cn2-c1ccc(F)cc1C(=O)N(C)C(C)C (single isomer, unassigned) [Compound 139a] | 0.122 | ~810 |  |
| Cc1cncc2c1c(C[C@@H]1CCN([C@@H]3CCNC(=O)CC3)C1)cn2-c1ccc(F)cc1C(=O)N(C)C(C)C (single isomer, unassigned) [Compound 139b] | 0.087 | 716 |  |
| Cc1cncc2c1c(C[C@@H]1CCN(C[C@@H]3CCCCO3)C1)cn2-c1ccc(F)cc1C(=O)N(C)C(C)C (single isomer, unassigned) [Compound 147b] | 0.073 | ~105 |  |
| CC(=O)N1CCC([C@H](C)N2CC(Cc3cn(-c4ccc(F)cc4C(=O)N(C)C(C)C)c4cncc(C)c34)C2)CC1 (single isomer, unassigned) [Compound 151] | 3.77 | 1350 |  |
| COC[C@@H](C1CCCCO1)N1CC[C@@H](Cc2cn(-c3ccc(F)cc3C(=O)N(C)C(C)C)c3cncc(C)c23)C1 (single isomer, unassigned) [Compound 165a] | 0.173 | ~180 |  |
| Cc1cncc2c1c(C[C@@H]1CCN([C@@H](C)C3CCOCC3)C1)cn2-c1ccc(F)cc1[S@](=N)(=O)C(C)C (single isomer, unassigned) [Compound 180b] | 7.29 | ~2810 |  |
| Cc1cncc2c1c(C[C@H]1CCN([C@@H](C)C3CCOCC3)C1)cn2-c1ccc(F)cc1[S@](=N)(=O)C(C)C (single isomer, unassigned) [Compound 181b] | 4.58 | 1910 |  |
| Cc1cncc2c1c(C[C@@H]1CCN([C@H](C)C3CCOCC3)C1)cn2-c1ccc(F)cc1[S@@](=N)(=O)C(C)C (single isomer, unassigned) [Compound 182a] | 0.462 | 287 |  |
| Cc1cncc2c1c(C[C@@H]1CCN([C@@H](C)C3CCOCC3)C1)cn2-c1ccc(F)cc1[S@@](=N)(=O)C(C)C (single isomer, unassigned) [Compound 182b] | 3.1 | 1770 |  |

| Structure (SMILES) | IC50 [1] [nM] | IC50 ([2]; Homo sapiens, MOLM-14, 48 h) [nM] | IC50 [2] [nM] |
| --- | --- | --- | --- |
| Cc1cncc2c1c(C[C@H]1CCN([C@H](C)C3CCOCC3)C1)cn2-c1ccc(F)cc1[S@@](=N)(=O)C(C)C (single isomer, unassigned) [Compound 183a] | 0.37 | 307 |  |
| Cc1cncc2c1c(C[C@H]1CCN([C@@H](C)C3CCOCC3)C1)cn2-c1ccc(F)cc1[S@@](=N)(=O)C(C)C (single isomer, unassigned) [Compound 183b] | 2.61 | ~2040 |  |
| Cc1cncc2c1c(CC1CCN(CC3CNC(=O)C3)CC1)cn2-c1ccc(F)cc1C(=O)N(C)C(C)C (single isomer, unassigned) [Compound 186a] | 0.447 | 419 |  |
| Cc1cncc2c1c(CC1CCN(C[C@@H]3CNC(=O)C3)CC1)cn2-c1ccc(F)cc1C(=O)N(C)C(C)C (single isomer, unassigned) [Compound 186b] | 0.932 | 504 |  |
| Cc1cncc2c1c(CC1CN([C@H](C)C3CCS(=O)(=O)CC3)C1)cn2-c1ccc(F)cc1C(=O)N(C)C(C)C (single isomer, unassigned) [Compound 213a] | 0.567 | 1150 |  |
| Cc1cncc2c1c(CC1CN([C@@H](C)C3CCS(=O)(=O)CC3)C1)cn2-c1ccc(F)cc1C(=O)N(C)C(C)C (single isomer, unassigned) [Compound 213b] | 1.63 | ~2300 |  |
| CC(=O)N1CCC(CN2CC[C@@H](Cc3cn(-c4ccc(F)cc4[S@@]4(=O)=NCCC4)c4cncc(C)c34)C2)CC1 (single isomer, unassigned) [Compound 214a] | 1.29 | ~605 |  |
| CC(=O)N1CCC(CN2CC[C@@H](Cc3cn(-c4ccc(F)cc4[S@]4(=O)=NCCC4)c4cncc(C)c34)C2)CC1 (single isomer, unassigned) [Compound 214b] | 11.7 | ~7280 |  |
| CC(=O)N1CCC(CN2CC[C@H](Cc3cn(-c4ccc(F)cc4[S@@]4(=O)=NCCC4)c4cncc(C)c34)C2)CC1 (single isomer, unassigned) [Compound 224a] | 30.7 | > 1000 |  |
| CC(=O)N1CCC(CN2CC[C@H](Cc3cn(-c4ccc(F)cc4[S@]4(=O)=NCCC4)c4cncc(C)c34)C2)CC1 (single isomer, unassigned) [Compound 224b] | 2.77 | > 1000 |  |
| CC(=O)N1CCC([C@@H](C)N2CC[C@@H](Cc3cn(-c4ccc(F)cc4[S@](=N)(=O)C(C)C)c4cncc(C)c34)C2)CC1 (single isomer, unassigned) [Compound 230a] | 0.053 | 77 |  |
| CC(=O)N1CCC([C@H](C)N2CC[C@@H](Cc3cn(-c4ccc(F)cc4[S@](=N)(=O)C(C)C)c4cncc(C)c34)C2)CC1 (single isomer, unassigned) [Compound 230b] | 5.45 | > 1000 |  |
| CC(=O)N1CCC([C@@H](C)N2CC[C@@H](Cc3cn(-c4ccc(F)cc4[S@@](=N)(=O)C(C)C)c4cncc(C)c34)C2)CC1 (single isomer, unassigned) [Compound 231a] | 0.311 | 52 |  |
| CC(=O)N1CCC([C@H](C)N2CC[C@@H](Cc3cn(-c4ccc(F)cc4[S@@](=N)(=O)C(C)C)c4cncc(C)c34)C2)CC1 (single isomer, unassigned) [Compound 231b] | 6.94 | > 1000 |  |
| CC(=O)N1CCC([C@@H](C)N2CC[C@H](Cc3cn(-c4ccc(F)cc4[S@](=N)(=O)C(C)C)c4cncc(C)c34)C2)CC1 (single isomer, unassigned) [Compound 232a] | 0.624 | ~448 |  |
| CC(=O)N1CCC([C@H](C)N2CC[C@H](Cc3cn(-c4ccc(F)cc4[S@](=N)(=O)C(C)C)c4cncc(C)c34)C2)CC1 (single isomer, unassigned) [Compound 232b] | 4.04 | > 1000 |  |
| CC(=O)N1CCC([C@@H](C)N2CC[C@H](Cc3cn(-c4ccc(F)cc4[S@@](=N)(=O)C(C)C)c4cncc(C)c34)C2)CC1 (single isomer, unassigned) [Compound 233a] | 0.171 | 247 |  |
| CC(=O)N1CCC([C@H](C)N2CC[C@H](Cc3cn(-c4ccc(F)cc4[S@@](=N)(=O)C(C)C)c4cncc(C)c34)C2)CC1 (single isomer, unassigned) [Compound 233b] | 2.24 | > 1000 |  |
